Results reported in PMC11207953, “Phytochemical Investigation of Polyphenols from the Aerial Parts of Tanacetum balsamita Used in Transylvanian Ethnobotany and Parallel Artificial Membrane Permeability Assay” (Plants, 2024).

What was measured:
[1] = Parallel artificial membrane permeability assay for the blood–brain barrier (PAMPA-BBB), coupled with UHPLC-DAD; type: in vitro ADME; conditions: constituent measured within T. balsamita 50% (v/v) ethanolic extract (TbE), donor pH 7.4, acceptor pH 7.4, 37 °C, Pe in cm/s, n = 9, read-out: logPe PAMPA-BBB (n = 9) (converted)
From the text: (§1) The ability of the compounds in T. balsamita extract (TbE and TbW) to cross biological membranes of the gastrointestinal (GI) tract and the blood–brain barrier (BBB) by passive diffusion was investigated using the PAMPA model. The coupling of this assay with UHPLC separation allowed the rapid simultaneous investigation of the membrane permeability of the compounds present in the extract (Figure 3). […] Due to the artificial nature of the membrane used in the assay, only passive transport mechanisms can occur, unlike in cell-based assays. This is particularly important in the case of plant extracts due to their complexity, as the evaluation of results obtained by different co-existing mechanisms (e.g., active transport, or metabolism) can be challenging. Furthermore, no significant differences in effective permeabilities are observed in the PAMPA, whether assessed with single compounds or mixtures. […]
(§2) After incubation, sandwich plates were separated, and the concentrations of each compound in the starting donor solution and in the acceptor and donor wells were determined in triplicate by chromatographic peak areas derived from the UHPLC-DAD method described above. UV spectra and chromatograms were recorded at 200–400 nm, and the chromatograms acquired at the UV absorption maxima of each compound were used for data evaluation. […]

[2] = design: method as in PMID 29182998; conditions: isolated from Tanacetum parthenium; cited from earlier work
[3] = Parallel artificial membrane permeability assay for the gastrointestinal tract (PAMPA-GI), coupled with UHPLC-DAD; type: in vitro ADME; conditions: constituent measured within T. balsamita 50% (v/v) ethanolic extract (TbE), donor pH 6.8, acceptor pH 7.4, 37 °C, Pe in cm/s, n = 9, read-out: logPe PAMPA-GI (n = 9) (converted)
From the text: as §1, §2

Row | SMILES | Papp at 4 h [1] | permeability in the PAMPA-BBB model (in words) [2] | Papp at 4 h [3]
1 | O=c1cc(-c2ccc(O)cc2)oc2cc(O)cc(O)c12 [Compound 86, apigenin] | 34.7 ×10⁻⁶ cm/s | good permeability | 17.8 ×10⁻⁶ cm/s
2 | COc1c(O)cc2oc(-c3ccc(O)c(O)c3)c(OC)c(=O)c2c1O [axillarin] |  | good permeability | 
3 | COc1ccc(-c2oc3cc(OC)c(OC)c(O)c3c(=O)c2OC)cc1O [casticin] |  | good permeability | 
4 | COc1ccc(-c2cc(=O)c3c(O)c(OC)c(O)c(OC)c3o2)cc1 [nevadensin] |  | good permeability | 
5 | COc1cc(-c2cc(=O)c3c(O)c(OC)c(O)c(OC)c3o2)ccc1O [sudachitin] |  | good permeability | 
